From publication PMC2853803 (ACS chemical biology, 2009)
Entries after “also recorded” stand apart in the source; their conditions may differ. Like-named read-outs stand apart in the source and are kept apart here. Marks after values point to notes of the source that are not given here.

Tests used:
MRP1 = MRP1 (Homo sapiens, UniProt P33527); assay type: cell-based; conditions: 50 µM botryllamide; for fold increase in cellular calcein fluorescence (MRP1-mediated transport): MK-571 50 µM, MRP1-expressing HEK293; for effect on MRP1: result in words
P-gp = P-gp (Homo sapiens, UniProt P08183); conditions: 50 µM botryllamide; for fold change in rhodamine fluorescence (P-gp-mediated transport): valspodar 3 µg/ml, P-gp-expressing HEK293; for effect on P-gp: result in words
ABCG2 [1] = target: T1, ABCG2 (Homo sapiens, UniProt Q9UNQ0); assay: Screening assay: pheophorbide a; assay type: cell-based
T1 sequence (Q9UNQ0 1-655): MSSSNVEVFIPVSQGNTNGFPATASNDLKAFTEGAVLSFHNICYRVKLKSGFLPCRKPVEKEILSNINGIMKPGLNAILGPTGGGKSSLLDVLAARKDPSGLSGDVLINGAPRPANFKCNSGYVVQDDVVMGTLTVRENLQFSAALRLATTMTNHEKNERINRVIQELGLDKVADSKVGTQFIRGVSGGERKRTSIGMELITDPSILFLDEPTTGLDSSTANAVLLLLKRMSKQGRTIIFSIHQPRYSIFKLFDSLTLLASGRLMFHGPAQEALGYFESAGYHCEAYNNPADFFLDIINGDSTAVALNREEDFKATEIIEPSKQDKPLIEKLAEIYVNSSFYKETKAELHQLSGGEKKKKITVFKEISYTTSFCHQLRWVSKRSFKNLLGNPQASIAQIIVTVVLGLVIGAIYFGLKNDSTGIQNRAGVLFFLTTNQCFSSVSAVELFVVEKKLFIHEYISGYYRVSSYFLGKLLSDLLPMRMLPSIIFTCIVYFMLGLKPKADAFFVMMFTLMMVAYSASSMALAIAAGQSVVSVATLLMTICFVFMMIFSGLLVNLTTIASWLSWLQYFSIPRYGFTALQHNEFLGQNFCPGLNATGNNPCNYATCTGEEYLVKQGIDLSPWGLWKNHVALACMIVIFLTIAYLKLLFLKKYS

ABCG2 [2] = target: T1, ABCG2; assay type: cell-based; conditions: 10 µM compound; for activity in the BODIPY-prazosin flow cytometry assay: result in words
[3] = system: NCI-H460/MX20 (ABCG2-overexpressing) cells
[4] = system: parental NCI-H460 (ABCG2-) and NCI-H460/MX20 (ABCG2+) cells; assay: Cytotoxicity of botryllamides alone, 7 d; assay type: cell-based, human; conditions: 100 µM botryllamide, result in words
ABCG2 [5] = target: T1, ABCG2; conditions: 20 µM compound, MCF-7 FLV1000 membranes
NCI-H460 parental cells = assay: Mitoxantrone cytotoxicity in parental cells; assay type: cell-based, human; conditions: 10 µM mitoxantrone, vs vehicle (data not shown)
[6] = Light-induced isomerization on exposure to sunlight; assay type: physicochemical; conditions: result in words

Chain of P-gp (P08183 whole entry): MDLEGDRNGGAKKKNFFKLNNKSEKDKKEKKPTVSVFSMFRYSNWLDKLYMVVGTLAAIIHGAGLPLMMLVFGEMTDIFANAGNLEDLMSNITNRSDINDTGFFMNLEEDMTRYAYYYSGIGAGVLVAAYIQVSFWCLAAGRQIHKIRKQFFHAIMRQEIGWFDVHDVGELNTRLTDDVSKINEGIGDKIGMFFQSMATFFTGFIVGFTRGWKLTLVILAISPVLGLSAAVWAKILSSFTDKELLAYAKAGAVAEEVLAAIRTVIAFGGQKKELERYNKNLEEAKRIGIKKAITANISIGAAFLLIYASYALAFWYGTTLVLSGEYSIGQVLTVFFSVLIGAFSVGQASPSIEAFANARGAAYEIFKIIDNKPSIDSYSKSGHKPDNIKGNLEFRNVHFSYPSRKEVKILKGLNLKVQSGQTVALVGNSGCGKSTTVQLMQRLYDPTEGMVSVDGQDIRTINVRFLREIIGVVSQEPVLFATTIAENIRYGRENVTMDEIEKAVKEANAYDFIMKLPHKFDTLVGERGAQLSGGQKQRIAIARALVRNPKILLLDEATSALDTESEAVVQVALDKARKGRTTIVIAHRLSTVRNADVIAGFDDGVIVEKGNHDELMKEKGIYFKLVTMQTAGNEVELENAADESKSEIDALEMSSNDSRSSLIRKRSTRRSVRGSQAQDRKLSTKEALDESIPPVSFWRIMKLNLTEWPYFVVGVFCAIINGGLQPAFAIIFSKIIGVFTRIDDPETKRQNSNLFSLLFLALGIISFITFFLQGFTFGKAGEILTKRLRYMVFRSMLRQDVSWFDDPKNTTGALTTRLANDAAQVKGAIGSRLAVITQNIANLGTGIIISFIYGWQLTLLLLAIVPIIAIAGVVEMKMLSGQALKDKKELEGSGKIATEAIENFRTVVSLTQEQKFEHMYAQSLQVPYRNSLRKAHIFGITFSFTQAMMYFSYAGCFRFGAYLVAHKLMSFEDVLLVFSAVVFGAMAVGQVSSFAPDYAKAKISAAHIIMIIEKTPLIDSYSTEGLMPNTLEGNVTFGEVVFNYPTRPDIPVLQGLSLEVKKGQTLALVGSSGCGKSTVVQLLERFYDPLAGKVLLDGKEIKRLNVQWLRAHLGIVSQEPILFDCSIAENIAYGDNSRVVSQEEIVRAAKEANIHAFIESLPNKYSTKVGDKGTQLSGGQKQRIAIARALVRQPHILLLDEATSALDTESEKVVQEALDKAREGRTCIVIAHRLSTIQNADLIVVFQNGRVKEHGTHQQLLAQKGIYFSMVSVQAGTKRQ
Chain of MRP1 (P33527 whole entry): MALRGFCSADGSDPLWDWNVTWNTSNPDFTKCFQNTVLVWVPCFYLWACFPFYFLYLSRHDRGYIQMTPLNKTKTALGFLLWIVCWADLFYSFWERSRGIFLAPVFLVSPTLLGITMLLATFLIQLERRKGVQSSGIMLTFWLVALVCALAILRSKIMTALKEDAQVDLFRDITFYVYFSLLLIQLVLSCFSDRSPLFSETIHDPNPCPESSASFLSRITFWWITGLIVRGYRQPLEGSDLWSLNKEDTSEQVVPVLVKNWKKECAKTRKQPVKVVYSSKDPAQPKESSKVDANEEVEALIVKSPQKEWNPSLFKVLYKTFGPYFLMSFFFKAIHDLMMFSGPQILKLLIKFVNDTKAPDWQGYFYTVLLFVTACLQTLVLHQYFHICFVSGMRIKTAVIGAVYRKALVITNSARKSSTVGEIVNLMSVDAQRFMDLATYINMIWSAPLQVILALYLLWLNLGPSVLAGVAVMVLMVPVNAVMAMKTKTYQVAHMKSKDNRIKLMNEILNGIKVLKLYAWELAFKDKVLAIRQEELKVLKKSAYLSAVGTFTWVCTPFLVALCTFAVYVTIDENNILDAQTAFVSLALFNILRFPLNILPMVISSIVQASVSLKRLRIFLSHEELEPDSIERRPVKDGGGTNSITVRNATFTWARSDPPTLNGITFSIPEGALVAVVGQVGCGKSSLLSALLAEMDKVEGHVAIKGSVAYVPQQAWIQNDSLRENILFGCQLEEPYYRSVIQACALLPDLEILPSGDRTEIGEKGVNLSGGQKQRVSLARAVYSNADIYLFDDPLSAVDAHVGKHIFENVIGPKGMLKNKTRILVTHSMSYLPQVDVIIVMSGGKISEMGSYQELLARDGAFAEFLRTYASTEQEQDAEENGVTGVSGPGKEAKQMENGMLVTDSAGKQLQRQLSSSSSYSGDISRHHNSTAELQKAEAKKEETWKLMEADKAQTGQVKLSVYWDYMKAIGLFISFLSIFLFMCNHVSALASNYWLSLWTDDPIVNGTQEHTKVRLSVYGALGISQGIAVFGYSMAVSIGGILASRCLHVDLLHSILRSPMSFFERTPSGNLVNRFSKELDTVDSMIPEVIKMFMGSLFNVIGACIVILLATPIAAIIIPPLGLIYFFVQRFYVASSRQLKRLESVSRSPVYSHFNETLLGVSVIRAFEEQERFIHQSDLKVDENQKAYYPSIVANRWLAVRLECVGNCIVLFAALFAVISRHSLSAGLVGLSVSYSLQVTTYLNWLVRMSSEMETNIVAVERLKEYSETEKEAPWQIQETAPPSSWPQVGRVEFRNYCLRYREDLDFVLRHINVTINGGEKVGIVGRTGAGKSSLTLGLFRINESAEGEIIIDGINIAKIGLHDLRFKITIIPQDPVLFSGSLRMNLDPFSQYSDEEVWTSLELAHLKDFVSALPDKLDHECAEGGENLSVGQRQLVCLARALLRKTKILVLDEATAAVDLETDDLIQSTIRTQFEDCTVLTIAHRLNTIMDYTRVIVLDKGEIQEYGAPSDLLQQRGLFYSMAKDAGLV

## CO/C(=C\c1ccc(O)cc1)C(=O)N/C=C/c1cc(Br)c(OC)c(Br)c1 [Botryllamide A, botryllamide A]
MRP1
  fold increase in cellular calcein fluorescence (MRP1-mediated transport): 4.5 fold
P-gp
  fold change in rhodamine fluorescence (P-gp-mediated transport): 17.6 fold

## CO/C(=C\c1ccc(O)cc1)C(=O)N/C=C/c1ccc(OC)c(Br)c1 [Botryllamide C, botryllamide C]
ABCG2 [1]; result in words
  activity in the screening assay (PhA): inactive
ABCG2 [2]
  activity in the BODIPY-prazosin flow cytometry assay: active
MRP1
  fold increase in cellular calcein fluorescence (MRP1-mediated transport): 3.7 fold
[3]; 10 µM compound + 10 µM mitoxantrone, result in words
  activity in the mitoxantrone resistance reversal assay: not particularly active
P-gp
  fold change in rhodamine fluorescence (P-gp-mediated transport): 46.4 fold

## CO/C(=C\c1ccc(O)cc1)C(=O)N/C=C/c1ccc(OC)c(Br)c1 [Botryllamide D, botryllamide D]
ABCG2 [1]
  IC50: 16.4 ± 2.3 µM
[4]
  cytotoxicity: significant cytotoxicity
P-gp
  effect on P-gp: inactive

## CO/C(=C\c1ccc(O)cc1)C(=O)N/C=C/c1ccc(OC)cc1 [Botryllamide E, botryllamide E]
MRP1
  effect on MRP1: minimal effects
P-gp
  effect on P-gp: minimal effects; also recorded: inactive

## CO/C(=C\c1ccc(O)cc1)C(=O)N/C=C/c1ccc(O)cc1 [Botryllamide F, botryllamide F]
[4]
  cytotoxicity: significant cytotoxicity

## CO/C(=C\c1ccc(O)cc1)C(=O)N/C=C/c1cc(Br)c(O)c(Br)c1 [Botryllamide G, botryllamide G]
ABCG2 [1]; human
  max activity (% FTC): 123.7 ± 1.7 ^d % FTC
MRP1
  effect on MRP1: minimal effects
P-gp
  effect on P-gp: minimal effects; also recorded: inactive

## [C-]#[N+]c1c(O)cccc1/C=C(/O)C(=O)N/C=C/c1ccc(O)cc1 [Botryllamide H, botryllamide H]
ABCG2 [1]
  activity in the screening assay (PhA): inactive
ABCG2 [2]
  activity in the BODIPY-prazosin flow cytometry assay: inactive

## COc1ccc2c3c([nH]c2c1)[C@H](C=C(C)C)N1C(=O)[C@@H]2CCCN2C(=O)[C@@H]1C3 [FTC, fumitremorgin C, reference compound]
ABCG2 [2]; ABCG2-transfected HEK293, vs absence of inhibitor
  fold increase in intracellular BODIPY-prazosin fluorescence: 3.4 fold
ABCG2 [5]
  [125I]IAAP binding (incorporation into ABCG2): 14 % of control
[3]; 10 µM compound + 10 µM mitoxantrone, 3 days, vs vehicle (DMSO) control
  cells surviving in the presence of mitoxantrone: 57%

## O=C1c2c(O)ccc(O)c2C(=O)c2c(NCCNCCO)ccc(NCCNCCO)c21 [mitoxantrone, reference compound]
NCI-H460 parental cells
  cells surviving with mitoxantrone alone: approximately 50%
[3]; 10 µM mitoxantrone, 3 days, NCI-H460 MX20, vs vehicle (DMSO)
  cells alive with mitoxantrone alone: approximately 88%

## C/C=C/C[C@@H](C)C(=O)[C@H]1C(=O)N[C@@H](C(C)C)C(=O)N(C)CC(=O)N(C)[C@@H](CC(C)C)C(=O)N[C@@H](C(C)C)C(=O)N(C)[C@@H](CC(C)C)C(=O)N[C@@H](C)C(=O)N[C@H](C)C(=O)N(C)[C@@H](CC(C)C)C(=O)N(C)[C@@H](CC(C)C)C(=O)N(C)[C@@H](C(C)C)C(=O)N1C [valspodar, reference compound]
P-gp
  fold change in rhodamine fluorescence (P-gp-mediated transport): 29.7 fold

## botryllamide B
ABCG2 [1]
  IC50: 11.2 ± 0.6 µM
[4]
  cytotoxicity: significant cytotoxicity

## botryllamide I
ABCG2 [1]
  IC50: 41.4 ± 6.1 µM
[6]
  stability to sunlight: irreversibly converted to botryllamide E (5) by exposure to sunlight
